Assay results: patent US7314620B2, “Methods for diagnosis and treatment of PH domain signal transduction disorders” (New York University, priority 1995, dated 2008)
Values joined by “and” are separate entries in the source; they are usually repeats but may differ in a detail not shown here. Equal values may be shown once. “Also recorded” adds a separate entry of the source. Read-outs that look alike come from different tables or passages of the source.

Columns and labels:
[1] = target: T1, PLCδ-PH (Rattus norvegicus, UniProt P10688); assay: Spin-column competition assay for 3H-I(145)P3 binding to PLCδ-PH
T1 construct: initiator methionine (N); made in house; host or cells: Escherichia coli (pET11a, T7 system)
T1 sequence (P10688 20-136): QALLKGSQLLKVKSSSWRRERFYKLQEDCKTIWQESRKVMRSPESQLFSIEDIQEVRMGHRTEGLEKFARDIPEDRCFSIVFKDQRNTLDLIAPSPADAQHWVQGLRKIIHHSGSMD
Description: A spin-column based competition assay was employed to determine relative affinities of other inositol polyphosphates for PLCδ-PH. […] The sample (40 μl) was then applied to a Biogel P6 gel filtration spin-column. […] Each curve represents the mean of two or more experiments.
The sample was then applied to a pre-spun 1 ml spin-column containing Biogel P6 desalting medium. The spin-column was then centrifuged for 4 minutes at 900 g. Essentially all of the protein was determined to pass through the column under these conditions, and no significant counts were seen to pass through the column in the absence of protein. After spinning, all of the material that passed through the column was added to scintillation fluid for counting. Counts were normalized to those obtained in the absence of competitor, and plotted as fraction of maximal binding. […]
Values for which a precise number is given represent the mean of at least two experiments.

[2] = target: T2, PLCδ-PH (PH domain of rat PLC-δ1) (Rattus norvegicus, UniProt P10688); assay: Isothermal titration calorimetry of inositol polyphosphate / PIP2 vesicle binding to PLCδ-PH; settings: for Kd: read-out: KD
T2 construct: initiator methionine (N); made in house; host or cells: Escherichia coli (pET11a, T7 system)
T2 sequence (P10688 20-136): T1 sequence (P10688 20-136)
Description: The resulting titration curve was fit using Omega software (Wiseman et al., 1989).
All experiments utilized the OMEGA instrument from MicroCal (Wiseman, T. et al., Anal. Biochem. 179, 131-137, 1989), in the laboratory of Prof. Julian Sturtevant at Yale. Titrations were performed at 25° C. in 50 mM MOPS, 100 mM NaCl, pH 6.8 or 100 mM NH4OAc at pH 6.8. […] For each titration, PH domain solution was dialyzed exhaustively against the buffer used for dilution of highly concentrated stocks of ligand. Heats for dilution of the ligand solutions were determined in separate titrations of ligand into buffer solution present in the cell.
Higher concentrations were employed for weaker binding events. […] Stoichiometry, binding constant (Kβ) and ΔH were all allowed to float in the fitting procedure.
A titration curve such as that to an equation describing a simple-binding reaction (Wiseman, T. et al., Anal. Biochem. 179, 131-137, 1989). From this fit, values for the binding constant, stoichiometry and ΔH for the binding reaction are ascertained. […] Ferris, C. D. et al, Nature, 342, 87-89, 1989.

[3] = target: T1, PLCδ-PH; assay: Equilibrium gel filtration (Hummel and Dreyer) of PH domain binding to lipid vesicles; settings: lipid-containing DMPC vesicles; overestimates of the real KD; read-out: apparent KD for vesicle binding
Description: (§1) A 150×7.5 mm Superdex 75 column, attached to a Dionex HPLC system, was equilibrated with buffer containing PH domain at around 5 μM (depending upon the experiment). A suspension of vesicles that also contained 5 μM PH domain was then injected. In the absence of interaction between the PH domain and the vesicles, the resulting column profile (detected by absorbance at 280 nm) reflects only the lipid peak. However, if there is significant interaction, a trough is observed at a position corresponding to the elution position of the free PH domain, since the lipids have removed free PH domain from the column buffer. When such a trough was observed, in order to determine a KD for the interaction, a series of higher concentrations of PH domain were injected, all with constant lipid concentration. A plot of trough area against [PH] in the injected sample was linear, becoming positive when excess free protein was present in the injected sample (see FIG. 5B). This line was used to determine the point at which no trough was observed. At this point, [PH]free in the injected sample is equal to [PH] in the column buffer. Since [PH]total as well as [lipid]total in the injected sample are known, KD can be determined, as KD=([PH]free×[lipid]free)/[complex]. [complex]=[PH]total−[PH]free, and [lipid]free=[lipid]total−[complex].
(§2) We also utilized the equilibrium gel-filtration approach described by Hummel, J. P., and Dreyer, W. J., Biochim. Biophys. Acta. 63, 530-532, 1962. In this approach, a size exclusion column is equilibrated with a solution of the ligand (5 μM PH domain in this case), and a solution of macromolecule (a vesicle suspension in this case) that also contains 5 μM ligand is then injected. In the absence of interaction between the ligand and macromolecule, a single peak, corresponding to the macromolecule, is observed. […] If an interaction is observed, its KD can be determined as described in Experimental Procedures. […]

[4] = target: T3, PlecN-PH (Homo sapiens, UniProt P08567); assay: as above; settings: PIP2-containing vesicles; overestimate; inhibited by moderately high NaCl; read-out: apparent KD for vesicle binding
T3 construct: residues 1-110 of pleckstrin (PlecN-PH); initiator methionine (N); made in house; host or cells: Escherichia coli (pET11a, T7 system)
T3 sequence (P08567 1-110): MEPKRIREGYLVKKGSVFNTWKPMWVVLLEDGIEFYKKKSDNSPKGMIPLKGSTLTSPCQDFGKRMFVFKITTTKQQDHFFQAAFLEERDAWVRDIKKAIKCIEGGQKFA
Description: as §1, §2

[5] = target: T4, N-terminal pleckstrin PH domain (Homo sapiens, UniProt P08567); settings: PIP2 in detergent; Harlan et al. 1994; cited from earlier work
T4 sequence (P08567 4-101 limits assumed): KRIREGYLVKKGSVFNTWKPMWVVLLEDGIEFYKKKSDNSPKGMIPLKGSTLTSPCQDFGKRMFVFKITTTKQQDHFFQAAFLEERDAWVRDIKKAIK

[6] = target: T5, SH2 domain of Lck (Homo sapiens, UniProt P06239); assay: Equilibrium gel filtration control with SH2 domain; type: binding; settings: low salt; 50 mM MOPS pH 6.8, 100 mM NaCl
T5 construct: Control experiments performed with the SH2 domain of Lck; made in house

[7] = ITC, PIP2 at 5% in DMPC vesicles

T5 sequence (P06239 127-224 limits assumed): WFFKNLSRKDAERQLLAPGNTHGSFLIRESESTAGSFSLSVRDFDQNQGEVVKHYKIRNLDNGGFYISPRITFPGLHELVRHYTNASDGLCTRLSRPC

Kd ([1]; PIP2: 5% in DMPC vesicles, assuming 50% available, read-out: KD from competition assay): ~400 nM | binding weaker than I(145)P3 ([1]; relative to I(145)P3 binding to PLCδ-PH): two-fold weaker | PIP2 in the vesicle preparation available for PLCδ-PH binding (apparent stoichiometry) [2, 7]: 57% | Kd [2, 7]: 1000 nM and 950 nM | binding affinity in words ([2]; PIP2 in vesicles): submicromolar affinities | ΔG ([2]; individual titrations, 25° C): -8.22 kcal/M and -7.74 kcal/M | Stoichiometry n ([2]; individual titrations, 25° C, pH 6.8, quoted for IPn as the ligand, PIP2 in vesicles assuming 50% available): 0.88 ± 0.02 and 0.87 ± 0.02 | Kd ([2]; individual titrations, 25° C, pH 6.8): 950 nM and 2120 nM | Kd [3]: 13000 nM | Kd [4]: ~90000 nM | binding to vesicles [6]: also binds
Substance: Phosphatidylinositol-(4,5)-bisphosphate [PIP2]
competition for I(145)P3 binding by lipid vesicles ([1]; lipid at 5% in DMPC vesicles or pure DMPC, assuming 50% of lipid on the surface): almost as effective as that seen with unlabelled I(145)P3; also recorded: as effectively as can GPIP2 | ΔH ([2]; individual titrations, 25° C): -13.6 ± 0.4 kcal/M and -17.4 ± 0.4 kcal/M | ΔS ([2]; individual titrations, 25° C): −18.1 cal · M^−1 · K^−1 and −32.4 cal · M^−1 · K^−1 | Kd [5]: ~30000 nM
